Data reported in EP0745595A1, “3-(3-Aryloxyphenyl)-1-(substituted methyl)-s-triazine-2,4,6-oxo or thiotrione herbicidal agents” (American Cyanamid Company, priority 1995, dated 1996).

Columns and labels:
Assay type in all cases: in vivo
[1] = system: ABUTILON THEOPHRASTI, MEDIC.; experiment: Postemergence herbicidal evaluation, ABUTH (Velvetleaf); conditions: rated four to five weeks after treatment, averaged
Outline: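 This postemergence herbicide test used two-week-old velvetleaf seedlings grown in jiffy flats. Each compound was sprayed at 40 psi as a dispersion in 50/50 acetone/water with 0.5% TWEEN®20 surfactant. Plants then received routine greenhouse care. After four to five weeks, injury was scored visually on a 0-9 scale against a control, and replicate tests were averaged.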

[…], PRESL. = Preemergence weed control under flooded paddy conditions, MOOVA (Monochoria); conditions: for MOOVA herbicidal rating: preemergence weeds, rated three to four weeks after treatment; for Herbicidal effect rating, MOOVA: preemergence, 3-4 weeks after treatment
Outline: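 Visual 0-9 rating against untreated control, covering stand, vigor, malformation, size and chlorosis, scored three to four weeks post-treatment in a greenhouse. Application was into 1.5-3 cm flood water over silt loam sown at 0.5 cm. The 50/50 v/v aqueous/acetone doses were about 0.5, 0.25, 0.125 and 0.063 kg/ha.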

CYPERUS IRIA = experiment: Preemergence weed control under flooded paddy conditions, CYPIR (Rice Flatsedge); conditions: for CYPIR herbicidal rating: preemergence weeds, rated three to four weeks after treatment; for Herbicidal effect rating, CYPIR: preemergence, 3-4 weeks after treatment
Description: (§1) Results of herbicide evaluation are expressed on a rating scale (0-9). The scale is based upon a visual observation of plant stand, vigor, malformation, size, chlorosis and overall plant appearance as compared with a control.
(§2) Preemergence herbicidal activity under flooded paddy conditions is determined as follows: plant seeds or propagating organs are planted in the top 0.5 cm of silt loam soil in 32 oz. plastic containers with a diameter of 10.5 cm and no drainage holes. Water is added to these containers and maintained at 1.5 to 3 cm above the soil surface for the duration of the experiment. […] The treated containers are placed on greenhouse benches and cared for according to normal greenhouse procedures.- Three to four weeks after treatment the test is terminated and each container is examined and herbicidal effect rated according to the rating system provided in Example 40. The compounds evaluated are reported by compound number given in Example 40.
(§3) Plant species employed in this example are reported by header abbreviation, common name and scientific name.

CASSIA OBTUSIFOLIA, L. = experiment: Postemergence herbicidal evaluation, CASOB (Sicklepod); conditions: rated four to five weeks after treatment, averaged
Outline: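 Each value is a 0–9 visual rating of plant appearance compared with control, recorded 4–5 weeks after a 0.125–0.500 kg/ha spray, with multiple tests averaged.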

CHENOPODIUM ALBUM, L. [2] = experiment: Postemergence herbicidal evaluation, CHEAL (Lambsquarters, Common); conditions: rated four to five weeks after treatment, averaged
Description: In the tests, seedling plants are grown in jiffy flats for about two weeks. The test compounds are dispersed in 50/50 acetone/water mixtures containing 0.5% TWEEN®20, a polyoxyethylene sorbitan monolaurate surfactant of Atlas Chemical Industries, […] to the plants through a spray nozzle operating at 40 psi for a predetermined time. After spraying, the plants are placed on greenhouse benches and are cared for in the usual manner, commensurate with conventional greenhouse practices. From four to five weeks after treatment, the seedling plants are examined and rated according to the rating system set forth below. Where more than one test is involved for a given compound, the data are averaged.
Plant species employed in these evaluations are reported by header abbreviation, common name and scientific name.
as §1

IPOMOEA SPP. = experiment: Postemergence herbicidal evaluation, IPOSS (Morningglory spp.); conditions: rated four to five weeks after treatment, averaged
Outline: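 In this greenhouse postemergence herbicide test on Ipomoea spp. (morningglory), compounds in 50/50 acetone/water with 0.5% TWEEN®20 were sprayed at 40 psi onto seedlings about two weeks old grown in jiffy flats. After four to five weeks, injury was scored on a 0-9 scale covering stand, vigor, malformation, size, chlorosis and overall appearance versus control, with repeat tests averaged.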

[3] = system: AMBROSIA ARTEMISIIFOLIA, L.; experiment: Postemergence herbicidal evaluation, AMBEL (Ragweed, Common); conditions: rated four to five weeks after treatment, averaged
Outline: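 Postemergence herbicidal activity on AMBEL (common ragweed) was assessed on two-week-old seedlings grown in jiffy flats. Treatment solutions of 50/50 acetone/water with 0.5% TWEEN®20 surfactant were sprayed at 40 psi. After four to five weeks in the greenhouse, plants were scored 0-9 against a control for stand, vigor, malformation, size, chlorosis and overall appearance, with multiple tests averaged.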

[4] = system: ECHINOCHLOA ORYZOIDES (ARD.)FRITSCH; experiment: Preemergence weed control under flooded paddy conditions, ECHORC (Watergrass (Calif.)); conditions: for ECHORC herbicidal rating: preemergence weeds, rated three to four weeks after treatment; for Herbicidal effect rating, ECHORC: preemergence, 3-4 weeks after treatment
Description: as §1, §2, §3

[5] = system: ORYZA SATIVA, L. TEBONNET; experiment: Rice tolerance to post-transplant applications under flooded paddy conditions, ORYSAT (Rice, Tebonnet); conditions: post-transplant rice; for ORYSAT herbicidal rating (rice tolerance): rated three to four weeks after treatment; for Herbicidal effect rating, ORYSAT: 3-4 weeks after treatment;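 for ORYSAT herbicidal rating (rice tolerance): applied to flooded soil surface three days after transplanting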
Outline: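 Rated on a visual 0–9 scale against untreated plants 3–4 weeks after application, rice (cv. Tebonnet) tolerance was tested by applying compounds (approx. 0.5–0.063 kg/ha, acetone/water 50/50) to flooded soil three days post-transplant, water kept 1.5–3 cm deep.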

CHENOPODIUM ALBUM, L. [6] = experiment: Preemergence herbicidal evaluation, CHEAL (Lambsquarters, Common); conditions: four to five weeks after treatment
Outline: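 Rated 0-9 by visual comparison with control (stand, vigor, malformation, size, chlorosis, overall appearance) four to five weeks after preemergence soil spray. Dose equivalent to about 0.125 to 0.50 kg per hectare, applied in aqueous acetone to freshly seeded cups kept in greenhouse.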

[7] = system: CYPERUS SEROTINUS, ROTTB.; experiment: Preemergence weed control under flooded paddy conditions, CYPSE (Flatsedge); conditions: preemergence, 3-4 weeks after treatment
Description: as §1, §2, §3

SAGITTARIA PYGMAEA, L. = experiment: Preemergence weed control under flooded paddy conditions, SAGPY (Arrowhead (Pygmaea)); conditions: preemergence, 3-4 weeks after treatment
Description: as §1, §2, §3

CCOC(=O)Cn1c(=O)n(C)c(=O)n(-c2cc(Oc3ccc(C(F)(F)F)cc3Cl)ccc2[N+](=O)[O-])c1=O [Compound 9, Ethyl 3-{5-[(2-chloro-α,α,α-trifluoro-p-tolyl)oxy]-2-nitrophenyl}tetrahydro-5-methyl-2,4,6-trioxo-s-triazine-1(2H)-acetate]
ABUTH, herbicide rating (0-9) ([1]; Rate 0.125 kg/ha): 9.0
ABUTH, herbicide rating (0-9) ([1]; Rate 0.250 kg/ha): 9.0
ABUTH, herbicide rating (0-9) ([1]; Rate 0.500 kg/ha): 9.0
MOOVA herbicidal rating ([…], PRESL.; Rate 0.063 kg/ha): 9.0
MOOVA herbicidal rating ([…], PRESL.; Rate 0.125 kg/ha): 9.0
MOOVA herbicidal rating ([…], PRESL.; Rate 0.250 kg/ha): 9.0
MOOVA herbicidal rating ([…], PRESL.; Rate 0.500 kg/ha): 9.0
CYPIR herbicidal rating (CYPERUS IRIA; Rate 0.063 kg/ha): 9.0
CYPIR herbicidal rating (CYPERUS IRIA; Rate 0.125 kg/ha): 9.0
CYPIR herbicidal rating (CYPERUS IRIA; Rate 0.250 kg/ha): 9.0
CYPIR herbicidal rating (CYPERUS IRIA; Rate 0.500 kg/ha): 9.0
CASOB, herbicide rating (0-9) (CASSIA OBTUSIFOLIA, L.; Rate 0.125 kg/ha): 9.0
CASOB, herbicide rating (0-9) (CASSIA OBTUSIFOLIA, L.; Rate 0.250 kg/ha): 9.0
CASOB, herbicide rating (0-9) (CASSIA OBTUSIFOLIA, L.; Rate 0.500 kg/ha): 9.0
CHEAL, herbicide rating (0-9) (CHENOPODIUM ALBUM, L. [2]; Rate 0.125 kg/ha): 9.0
CHEAL, herbicide rating (0-9) (CHENOPODIUM ALBUM, L. [2]; Rate 0.250 kg/ha): 9.0
CHEAL, herbicide rating (0-9) (CHENOPODIUM ALBUM, L. [2]; Rate 0.500 kg/ha): 9.0
IPOSS, herbicide rating (0-9) (IPOMOEA SPP.; Rate 0.125 kg/ha): 9.0
IPOSS, herbicide rating (0-9) (IPOMOEA SPP.; Rate 0.250 kg/ha): 9.0
IPOSS, herbicide rating (0-9) (IPOMOEA SPP.; Rate 0.500 kg/ha): 9.0
AMBEL, herbicide rating (0-9) ([3]; Rate 0.125 kg/ha): 9.0
AMBEL, herbicide rating (0-9) ([3]; Rate 0.250 kg/ha): 9.0
AMBEL, herbicide rating (0-9) ([3]; Rate 0.500 kg/ha): 9.0
ECHORC herbicidal rating ([4]; Rate 0.063 kg/ha): 9.0
ECHORC herbicidal rating ([4]; Rate 0.125 kg/ha): 9.0
ECHORC herbicidal rating ([4]; Rate 0.250 kg/ha): 9.0
ECHORC herbicidal rating ([4]; Rate 0.500 kg/ha): 9.0
ORYSAT herbicidal rating (rice tolerance) ([5]; Rate 0.063 kg/ha): 3.3
ORYSAT herbicidal rating (rice tolerance) ([5]; Rate 0.125 kg/ha): 3.7
ORYSAT herbicidal rating (rice tolerance) ([5]; Rate 0.250 kg/ha): 5.7
ORYSAT herbicidal rating (rice tolerance) ([5]; Rate 0.500 kg/ha): 6.0
CHEAL rating (CHENOPODIUM ALBUM, L. [6]; Rate 0.125 kg/ha): 9.0
CHEAL rating (CHENOPODIUM ALBUM, L. [6]; Rate 0.250 kg/ha): 9.0
CHEAL rating (CHENOPODIUM ALBUM, L. [6]; Rate 0.500 kg/ha): 9.0

C=CCn1c(=O)n(CC(=O)OCC)c(=O)n(-c2cc(Oc3ccc(C(F)(F)F)cc3Cl)ccc2[N+](=O)[O-])c1=O [Compound 13, Ethyl 3-allyl-5-{5-[(2-chloro-α,α,α-tri-fluoro-p-tolyl)oxy]-2-nitrophenyl}tetra-hydro-2,4,6-trioxo-s-triazine-1(2H)-acetate]
Herbicidal effect rating, CYPSE ([7]; 0.063 kg/ha): 0.0
Herbicidal effect rating, CYPSE ([7]; 0.125 kg/ha): 0.0
Herbicidal effect rating, CYPSE ([7]; 0.250 kg/ha): 0.0
Herbicidal effect rating, CYPSE ([7]; 0.500 kg/ha): 0.0
Herbicidal effect rating, SAGPY (SAGITTARIA PYGMAEA, L.; 0.063 kg/ha): 0.0
Herbicidal effect rating, SAGPY (SAGITTARIA PYGMAEA, L.; 0.125 kg/ha): 0.0
Herbicidal effect rating, SAGPY (SAGITTARIA PYGMAEA, L.; 0.250 kg/ha): 0.0
Herbicidal effect rating, SAGPY (SAGITTARIA PYGMAEA, L.; 0.500 kg/ha): 0.0
Herbicidal effect rating, MOOVA ([…], PRESL.; 0.063 kg/ha): 9.0
Herbicidal effect rating, MOOVA ([…], PRESL.; 0.125 kg/ha): 9.0
Herbicidal effect rating, MOOVA ([…], PRESL.; 0.250 kg/ha): 9.0
Herbicidal effect rating, MOOVA ([…], PRESL.; 0.500 kg/ha): 9.0
Herbicidal effect rating, CYPIR (CYPERUS IRIA; 0.063 kg/ha): 9.0
Herbicidal effect rating, CYPIR (CYPERUS IRIA; 0.125 kg/ha): 9.0
Herbicidal effect rating, CYPIR (CYPERUS IRIA; 0.250 kg/ha): 9.0
Herbicidal effect rating, CYPIR (CYPERUS IRIA; 0.500 kg/ha): 9.0
Herbicidal effect rating, ECHORC ([4]; 0.063 kg/ha): 9.0
Herbicidal effect rating, ECHORC ([4]; 0.125 kg/ha): 9.0
Herbicidal effect rating, ECHORC ([4]; 0.250 kg/ha): 9.0
Herbicidal effect rating, ECHORC ([4]; 0.500 kg/ha): 9.0
Herbicidal effect rating, ORYSAT ([5]; 0.063 kg/ha): 2.0
Herbicidal effect rating, ORYSAT ([5]; 0.125 kg/ha): 2.0
Herbicidal effect rating, ORYSAT ([5]; 0.250 kg/ha): 3.0
Herbicidal effect rating, ORYSAT ([5]; 0.500 kg/ha): 3.0
